PMC11789008 (Proceedings of the National Academy of Sciences of the …, 2025)
No end group written: not given here.

Columns and labels:
[1] = powder and solution form
SARS-CoV-2 spike RBD, WT = SARS-CoV-2 spike RBD, WT (Severe acute respiratory syndrome coronavirus 2, UniProt P0DTC2); test: biochemical
[2] = biological target: SARS-CoV-2 spike ectodomain trimer with the BA.5-type RBD (SARS-CoV-2) (UniProt P0DTC2); test: cryo-EM structure
[3] = biological target: SARS-CoV-2 spike ectodomain trimer with the BA.2-type RBD (SARS-CoV-2) (UniProt P0DTC2); test: cryo-EM structure

Substance: DKLWILQKIYEIMVRLDEEGHGEASLMVSDLIYEFMKRD [CeSPIACE]
- stability [1]: stability has been confirmed in powder and solution form
- Kd (SARS-CoV-2 spike RBD, WT): 0.246 ± 0.002 nM

Substance: SARS-CoV-2 spike ectodomain trimer with the BA.5-type RBD (from UniProt P0DTC2 13-1208) (domain or fragment)
- stoichiometry N [2]: 3

Substance: SARS-CoV-2 spike ectodomain trimer with the BA.2-type RBD (from UniProt P0DTC2 13-1208) (domain or fragment)
- stoichiometry N [3]: 3
